Source: patent US20230101743A1, “SUBSTITUTED TRIAZINE COMPOUNDS AND USES THEREOF” (MUSC FOUNDATION FOR RESEARCH DEVELOPMENT, priority 2020, published 2023)

Tests used:
APOA = experiment: Secreted APOA ELISA in iPSC-derived hepatocytes; type: cell-based, human; details: 2 μg/mL, 8 to 48 hours
Experimental: E. Human iPSC-derived hepatocytes were treated with 2 μg/mL of DL-1 from 8 to 48 hours. Albumin, APOPA, and APOB level in the culture medium were determined via ELISA. All secreted proteins were compared to non-treated cells. In FIG. 5, accumulated APOB in the medium from different time-point was measured and normalized to albumin level. In FIG. 6, APOA, APOB, and albumin in the medium at the indicated times were compared to control. […] Data are shown as mean±SEM of four replicates (n=4); *p<0.05, **p<0.01.
(§1) Human APOB level was determined via a commercial sandwich ELISA (3715-1H-6; Mabtech), and the signal was detected using the HRP-TMB system. The concentration of APOB was determined using a standard curve with four parameters logistic regression model. Human APOA level was determined via a commercial sandwich ELISA (3710-1H-6; Mabtech) following manufacture instruction. Human albumin levels in cell culture supernatants were measured by commercial ELISA (E88-129; Bethyl Laboratories) following manufactural instructions.

[1] = tested on: hepatic markers (ALB, AFP, HNF4α, SLC10A1, ASGR1); experiment: Hepatic marker expression (real-time qPCR, immunofluorescence); type: cell-based, human; details: 2 μg/mL, 24 hours
Experimental: C. Human iPSC-derived hepatocytes were treated with 2 μg/mL of DL-1 for 24 hours. (A) mRNA level of hepatic markers (ALB, AFP, HNF4α, SLC10A1, ASGR1) were determined via real-time qPCR. (B) Cells were fixed and immunofluorescence was performed to determine HNF4 and ALB level. […] Data are shown as mean SEM of […] (n=4).
For hepatic marker expression analysis, human iPSC-derived hepatocytes (Day 20) were treated with 2 μg/mL of DL-1 for 24 hours. Cells were fixed in 4% paraformaldehyde (PFA) and penetrated with 0.1% Triton-X-100. Cells were incubated with primary antibodies (ALB, 1:1000, Dako; HNF4-a, 1:1000, Santa Cruz) overnight at 4 degrees and then switched to secondary antibodies (Alexa Flour 488 goat anti-rabbit, 1:1000, Invitrogen; Alexa Flour 594 rabbit anti-mouse, 1:2000, Invitrogen). Images were taken using Bio-Rad Zoe™ Fluorescent Cell Imager (Bio-Rad). For intracellular APOB localization, iPSC-heps were treated with 0, 3, 12, 48 μg/mL of DL-9 for 24 hours, and cells were fixed in 4% PFA followed by 0.1% Triton-X-100 penetration. […] Integrated fluorescent intensity was normalized by total cell counts, which is determined by DAPI staining.
Human iPSC-derived hepatocytes (Day 20) were treated with 2 μg/mL of DL-1 for 24 hours. […] Quantitative real-time PCR was performed on a BioRad CFX384 real-time PCR machine.

Hepatic neutral lipid = experiment: Neutral lipid staining (BODIPY 493/503) in iPSC-derived hepatocytes; type: cell-based, human; details: 72 hours; DL-1 2 μg/mL, CP-346086 20 nM
Experimental: H. Human iPSC derived hepatocytes were treated with DL-1 (2 μg/mL) and MTTP inhibitor CP-346086 (20 nM) for 72 hours. […] (A) Hepatic neutral lipid was determined by staining with 2 μM of BODIPYTM 493/503 for 15 mins and fixed with 4% PFA for microscopy. Nuclei were stained blue by DAPI. Scale bar=100 μm. […] Data are shown as mean±SEM of ten replicates (n=10); ***p<0.001.
K3 iPSC-derived hepatocytes (Day 20) were treated with or without 2 μg/mL of DL-1 or 20 nM of CP-346086 (Sigma) for 72 hours with daily medium change. At the time-point of interest, cells were treated with 2 μM of BODIPY® 493/503 staining solution (ThermoFisher) and 5 μg/mL of Hoechst 33342 (ThermoFisher) in PBS at 37 degrees for 15 minutes. Cells were washed with sterile PBS three times and then fixed with 4% PFA. Fluorescence images were taken using Bio-rad Zoeυ Fluorescent Cell Imager (Bio-Rad) and KEYENCE BZ-X800E Fluorescence Microscope (KEYENCE). Integrated fluorescent intensity was normalized by total cell counts, which is determined by DAPI staining.

[2] = tested on: APOB secretion in the culture medium of hepatic cells; experiment: Secreted APOB ELISA in hepatic cells (K3 and JD4 iPSC-derived hepatocytes, human primary hepatocytes, HepG2); type: cell-based; details: 2 μg/mL, 24 hours; compared to DMSO-treated cells
Experimental: A. Human-induced pluripotent stem cells from a health donor (K3) and HoFH patient (JD4) were differentiated into hepatocytes via a defined protocol. Two different iPSC-derived Hepatocytes along with human primary hepatocytes and HepG2 cells were treated with 2 μg/mL of DL-1 for 24 hours and secreted APOB level were determined via human-specific APOB ELISA and were compared to DMSO-treated cells. […] Data shown as mean±SEM of triplicates (n=3); * p<0.05, *** P<0.001.
Human iPSCs were generated previously and have been described elsewhere (Si-Tayeb, 2010; Cayo et al., 2012). […]
as §1

Sc1nc(S)nc(Nc2ccc(Nc3ccccc3)cc2)n1 (racemic) [DL-1, 6-{[4-(phenylamino)phenyl]amino}-1,3,5-triazine-2,4-dithiol]
APOA level in culture medium, time course (APOA): without affecting albumin and APOA level | hepatic character (hepatic marker mRNA, HNF4 and ALB immunofluorescence) [1]: no impact on hepatic characters | hepatic lipid accumulation (neutral lipid level) (Hepatic neutral lipid): no impact on hepatic lipid accumulation | secreted APOB level [2]: reduces APOB secretion
